The results in this text go back to patent publication US20080287430A1, “Furan Compounds Useful As Ep1 Receptor Antagonists” (priority 2005, published 2008).

SMILES strings stand for the structures. Counter-ions that a name gives are not always drawn.

The target in experiment [1] is T1, human EP1 receptor (Homo sapiens, UniProt P34995).
T1 construct: expressed in transfected cells; host or cells: CHO-K1
T1 sequence (P34995 1-402): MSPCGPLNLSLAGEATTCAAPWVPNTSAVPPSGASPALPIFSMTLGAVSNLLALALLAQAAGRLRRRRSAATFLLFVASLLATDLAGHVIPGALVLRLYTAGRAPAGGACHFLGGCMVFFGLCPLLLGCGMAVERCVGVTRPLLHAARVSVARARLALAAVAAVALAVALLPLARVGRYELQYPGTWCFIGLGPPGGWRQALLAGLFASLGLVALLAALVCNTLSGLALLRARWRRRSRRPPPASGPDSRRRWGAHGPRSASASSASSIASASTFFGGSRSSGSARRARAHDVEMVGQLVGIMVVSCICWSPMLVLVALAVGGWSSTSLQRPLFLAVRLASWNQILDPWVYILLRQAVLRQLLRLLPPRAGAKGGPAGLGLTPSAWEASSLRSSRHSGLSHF
The experiment in a line: Binding assay for the human prostanoid EP1 receptor (competition with [3H]-PGE2). As to conditions: binding to human EP1 receptor, [3H]-PGE2 competition, CHO-K1 cell membranes; averages of a number of experiments; read-out: pIC50 value (converted). The procedure: Competition assay using [^3H]-PGE2.
Compound potencies are determined using a radioligand binding assay. In this assay compound potencies are determined from their ability to compete with tritiated prostaglandin E2 ([^3H]-PGE2) for binding to the human EP1 receptor.
This assay utilises Chinese hamster ovary-K1 (CHO-K1) cells into which a stable vector containing the EP1 cDNA has previously been transfected. Cells are cultured in suitable flasks containing culture medium such as DMEM:F-12 supplemented with 10% v/v foetal calf serum, 2 mM L-glutamine, 0.25 mg/ml geneticin, 10 μg/ml puromycin and 10 μM indomethacin.
Cells are detached from the culture flasks by incubation in calcium and magnesium free phosphate buffered saline containing 1 mM disodium ethylenediaminetetraacetic acid (Na2EDTA) and 10 μM indomethacin for 5 min. The cells are isolated by centrifugation at 250×g for 5 mins and suspended in an ice cold buffer such as 50 mM Tris, 1 mM Na2EDTA, 140 mM NaCl, 10 μM indomethacin (pH 7.4). The cells are homogenised using a Polytron tissue disrupter (2×10 s burst at full setting), centrifuged at 48,000×g for 20 mins and the pellet containing the membrane fraction is washed (optional) three times by suspension and centrifugation at 48,000×g for 20 mins. The final membrane pellet is suspended in an assay buffer such as 10 mM 2-[N-morpholino]ethanesulphonic acid, 1 mM Na2EDTA, 10 mM MgCl2 (pH 6). Aliquots are frozen at −80° C. until required.
For the binding assay the cell membranes, competing compounds and [^3H]-PGE2 (3 nM final assay concentration) are incubated in a final volume of 100 μl for 30 min at 30° C. All reagents are prepared in assay buffer. Reactions are terminated by rapid vacuum filtration over GF/B filters using a Brandell cell harvester. The filters are washed with ice cold assay buffer, dried and the radioactivity retained on the filters is measured by liquid scintillation counting in Packard TopCount scintillation counter.
The data are analysed using non linear curve fitting techniques to determine the concentration of compound producing 50% inhibition of specific binding (IC50).

The target of experiment [2] is T1, human EP1 receptor. The experiment can be described thus: human EP1 calcium mobilisation assay. The format is cell-based. As to conditions: human EP1, PGE2-induced calcium mobilisation in CHO-K1 cells; free bases or sodium salts; averages of a number of experiments; read-out: functional pKi value (converted). A digest of the protocol: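 CHO-K1 cells stably expressing human EP1, loaded with Fluo-4 after 24 h at 37° C; compounds added before PGE2 challenge. Inhibition of PGE2-induced [Ca2+]i rise read by FLIPR fluorescence; pIC50 from curve fitting of half-maximal inhibition.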
A general note: A change in cytosolic calcium serves as a functional read-out for many receptors and channels.

Regarding `CC(C)COc1ccc(Cl)cc1Cc1ccc(-c2nc3cc4cnn(C)c4cc3[nH]2)o1` [Example 107, 6-[5-({5-Chloro-2-[(2-methylpropyl)oxy]-phenyl}methyl)-2-furanyl]-1-methyl-1,5-dihydroimidazo[4,5-f]indazole], the IC50 in experiment [1] was not above 10 nM. Besides, the Ki in experiment [2] was less than 1000 nM.
In the case of `CC(C)COc1ccc(Cl)cc1Cc1ccc(-c2nc3ccccc3[nH]2)o1` [Example 98, 2-[5-({5-Chloro-2-[(2-methylpropyl)oxy]phenyl}methyl)-2-furanyl]-1H-benzimidazole], the IC50 in experiment [1] is not above 10 nM. Besides, the Ki in experiment [2] was not above 10 nM.
With `O=C(O)c1ccc(Cc2cc(Cl)ccc2OCc2ccc(F)cc2Cl)o1` [Example 22, Sodium 5-[(5-chloro-2-{[(2-chloro-4-fluorophenyl)methyl]oxy}phenyl)methyl]-2-furancarboxylate], the IC50 in experiment [1] was not above 10 nM. For the same compound, the Ki in experiment [2] was not above 10 nM.
As for `CC(C)COc1ccc(Cl)cc1Cc1ccc(-c2nc3ccc(CO)cc3[nH]2)o1` [Example 132], the IC50 in experiment [1] is not above 10 nM. The Ki in experiment [2] is less than 1000 nM.
Turning to `O=C(Nc1c(F)cccc1F)c1ccc(Cc2cc(Cl)ccc2OCc2ccc(Cl)cc2F)o1` [Example 84, 5-[(5-Chloro-2-{[(4-chloro-2-fluorophenyl)methyl]oxy}-phenyl)methyl]-N-(2,6-difluorophenyl)-2-furancarboxamide], the IC50 in experiment [1] is not above 10 nM. Further, the Ki in experiment [2] is less than 1000 nM.
Take `CC(C)COc1ccc(Cl)cc1Cc1ccc(-c2nc3ccc(CCN4CCN(C)CC4)cc3[nH]2)o1` [Example 162, 2-[5-({5-Chloro-2-[(2-methylpropyl)oxy]-phenyl}methyl)-2-furanyl]-5-[2-(4-methyl-1-piperazinyl)ethyl]-1H-benzimidazoletrihydrochloride]: the IC50 in experiment [1] was not above 10 nM. Besides, in experiment [2], the Ki was less than 1000 nM.
For the compound `CCN1CCN(Cc2ccc3nc(-c4ccc(Cc5cc(Cl)ccc5OCC(C)C)o4)[nH]c3c2)CC1` [Example 146, 2-[5-({5-Chloro-2-[(2-methylpropyl)oxy]-phenyl}methyl)-2-furanyl]-5-[(4-ethyl-1-piperazinyl)methyl]-1H-benzimidazoletrihydrochloride], the IC50 in experiment [1] is not above 10 nM. Besides, the Ki in experiment [2] was less than 1000 nM.
Take `CC(C)COc1ccc(Cl)cc1Cc1ccc(-c2nc3ccc(CN4CCCC4)cc3[nH]2)o1` [Example 143, 2-[5-({5-Chloro-2-[(2-methylpropyl)oxy]-phenyl}methyl)-2-furanyl]-5-(1-pyrrolidinylmethyl)-1H-benzimidazoledihydrochloride]: the IC50 in experiment [1] was not above 10 nM. Moreover, the Ki in experiment [2] is less than 1000 nM.
`CC(C)COc1ccc(Cl)cc1Cc1ccc(C(=O)O)o1` [Example 10, Sodium 5-({5-chloro-2-[(2-methylpropyl)oxy]phenyl}methyl)-2-furancarboxylate]: the IC50 in experiment [1] is not above 10 nM. The Ki in experiment [2] is less than 1000 nM.
Consider `CNCc1ccc2[nH]c(-c3ccc(Cc4cc(Cl)ccc4OCC(C)C)o3)nc2c1` [Example 166, ({2-[5-({5-Chloro-2-[(2-methylpropyl)oxy]phenyl}methyl)-2-furanyl]-1H-benzimidazol-5-yl}methyl)methylamine dihydrochloride], for which the IC50 in experiment [1] is not above 10 nM. The Ki in experiment [2] is less than 1000 nM.
On to `O=C(Nc1c(F)cccc1F)c1ccc(Cc2cc(Cl)ccc2OCc2ccc(F)cc2F)o1` [Example 36, 5-[(5-Chloro-2-{[(2,4-difluorophenyl)methyl]oxy}phenyl)methyl]-N-(2,6-difluorophenyl)-2-furancarboxamide], for which the IC50 in experiment [1] is not above 10 nM. In addition, the Ki in experiment [2] is not above 10 nM.
As for `O=C(O)c1ccc(Cc2cc(Cl)ccc2OCc2c(F)cc(F)cc2F)o1` [Example 20, Sodium 5-[(5-chloro-2-{[(2,4,6-trifluorophenyl)methyl]oxy}phenyl)methyl]-2-furancarboxylate], the IC50 in experiment [1] was not above 10 nM. Besides, the Ki in experiment [2] was less than 1000 nM.
With `OCc1ccc2nc(-c3ccc(Cc4cc(Cl)ccc4OCc4ccccc4)o3)[nH]c2c1` [Example 133, {2-[5-({5-Chloro-2-[(phenylmethyl)oxy]phenyl}methyl)-2-furanyl]-1H-benzimidazol-5-yl}methanol], in experiment [1], the IC50 is not above 10 nM. The Ki in experiment [2] is less than 1000 nM.
For the compound `COCCN(C)Cc1ccc2nc(-c3ccc(Cc4cc(Cl)ccc4OCC(C)C)o3)[nH]c2c1` [Example 148, N-({2-[5-({5-Chloro-2-[(2-methylpropyl)oxy]-phenyl}methyl)-2-furanyl]-1H-benzimidazol-5-yl}methyl)-N-methyl-2-(methyloxy)ethanaminedihydrochloride], the IC50 in experiment [1] was not above 10 nM. For the same compound, the Ki in experiment [2] is less than 1000 nM.
With `CC(C)COc1ccc(Cl)cc1Cc1ccc(-c2nc3ccc(CN(C)C(C)C)cc3[nH]2)o1` [Example 151, N-({2-[5-({5-Chloro-2-[(2-methylpropyl)oxy]-phenyl}methyl)-2-furanyl]-1H-benzimidazol-5-yl}methyl)-N-methyl-2-propanaminedihydrochloride], the IC50 in experiment [1] was not above 10 nM. The Ki in experiment [2] was less than 1000 nM.
`CC(C)COc1ccc(Cl)cc1Cc1ccc(-c2nc3ccc(CCO)cc3[nH]2)o1` [Example 115, 2-{2-[5-({5-Chloro-2-[(2-methylpropyl)oxy]-phenyl}methyl)-2-furanyl]-1H-benzimidazol-5-yl}ethanolhydrochloride]: the IC50 in experiment [1] is not above 10 nM. In addition, the Ki in experiment [2] is less than 1000 nM.
As to `O=C(O)c1ccc(Cc2cc(Cl)ccc2OCc2ccccc2)o1` [Example 18, Sodium 5-({5-chloro-2-[(phenylmethyl)oxy]phenyl}methyl)-2-furancarboxylate], in experiment [1], the IC50 is not above 10 nM. In addition, the Ki in experiment [2] is not above 10 nM.
For `CC(C)COc1ccc(Cl)cc1Cc1ccc(-c2nc3c(F)cccc3[nH]2)o1` [Example 108, 2-[5-({5-Chloro-2-[(2-methylpropyl)oxy]-phenyl}methyl)-2-furanyl]-4-fluoro-1H-benzimidazole], the IC50 in experiment [1] is not above 10 nM. Besides, in experiment [2], the Ki is less than 1000 nM.
In the case of `CC(C)COc1ccc(Cl)cc1Cc1ccc(-c2nc3ccc(CN4CCCCC4)cc3[nH]2)o1` [Example 147, 2-[5-({5-Chloro-2-[(2-methylpropyl)oxy]-phenyl}methyl)-2-furanyl]-5-(1-piperidinylmethyl)-1H-benzimidazoledihydrochloride], in experiment [1], the IC50 was not above 10 nM. Besides, in experiment [2], the Ki was less than 1000 nM.
Take `Clc1ccc(OCc2ccccc2)c(Cc2ccc(-c3nc4ccccc4[nH]3)o2)c1` [Example 99, 2-[5-({5-Chloro-2-[(phenylmethyl)oxy]phenyl}methyl)-2-furanyl]-1H-benzimidazole]: the IC50 in experiment [1] was not above 10 nM. The Ki in experiment [2] is less than 1000 nM.
Regarding `O=C(NS(=O)(=O)c1ccccc1)c1ccc(Cc2cc(Cl)ccc2OCc2ccc(F)cc2F)o1` [Example 35, 5-[(5-Chloro-2-{[(2,4-difluorophenyl)methyl]oxy}phenyl)methyl]-N-(phenylsulfonyl)-2-furancarboxamide], the IC50 in experiment [1] was not above 10 nM. For the same compound, the Ki in experiment [2] is not above 10 nM.
In the case of `CC(C)COc1ccc(Cl)cc1Cc1ccc(-c2nc3ccc(CN(C)CCC#N)cc3[nH]2)o1` [Example 149, 3-[({2-[5-({5-Chloro-2-[(2-methylpropyl)oxy]-phenyl}methyl)-2-furanyl]-1H-benzimidazol-5-yl}methyl)(methyl)-amino]propanenitriledihydrochloride], in experiment [1], the IC50 was not above 10 nM. Further, the Ki in experiment [2] is less than 1000 nM.
With `O=C(O)c1ccc(Cc2cc(Cl)ccc2OCC2CCCCC2)o1` [Example 6, Sodium 5-({5-chloro-2-[(cyclohexylmethyl)oxy]phenyl}methyl)-2-furancarboxylate], in experiment [1], the IC50 is not above 10 nM. Moreover, in experiment [2], the Ki is less than 1000 nM.
